Source: patent US20100166851A1, “Composition having lipolytic activity, production method thereof and use of the composition” (NUTRACEUTIC ET BUSINESS CONSULTING, priority 2007, published 2010)

System: human adipocytes
Assay: release of Not Esterified Fatty Acids (NEFA) by human adipocytes in suspension (ex-vivo lipolysis)
Type: cell-based
Settings: for NEFA: human adipocytes, 2 hours at 37° C., n=3; for % of the control: NEFA released, 2 hours
Protocol: This experiment has been conducted on human adipocytes isolated from an abdominal plasty of a donor. […] To 540 uL of a suspension of adipocytes in a test medium milieu have been added 60 μL of compound to be tested, and the mixtures have been incubated at 37° C., under stirring, for 2 hours. A final concentration of theophylline in the tested mixture of 1 mM was maintained, starting from a stock solution of 10^−2 M in test medium. Likewise, a final concentration of isoproterenol in the tested mixture of 1 μM was maintained, starting from a stock solution of […] in test medium. A final concentration of caffeine in the tested mixture of 0.5 mM was also maintained, starting from a stock solution of 5 mM in test medium. […] Since the composition according to the invention is a powder, it was diluted in DMSO, on the one hand, and in test medium, on the other hand. The stock solution prepared with DMSO was prepared at 10 mg/mL, i.e. 1% (w/v), for a final concentration of the composition according to the invention in solution in DMSO in the tested mixture of 0.01%. […] A control comprising only the adipocytes in test medium was also prepared. A total of 10 doses were prepared from 10 different fractions with the compound added or not. […] The dose was prepared conventionally by means of a NEFA-C measuring kit. The measured data were processed statistically. Intergroup comparisons were carried out through variance analysis (ANOVA) by means of the Dunnet multiple comparison test.

Compound: Cn1c(=O)c2[nH]cnc2n(C)c1=O [Theophylline, theophylline]
- NEFA (1.0 mM): 381 µM
- lipolysis stimulation, factor with respect to the control (1 mM, p<0.01): 10
- % of the control (1.0 mM): 1057%

Compound: CC(C)NCC(O)c1ccc(O)c(O)c1 (stereo not drawn) [Isoproterenol, isoproterenol]
- NEFA (1.0 μM): 377 µM
- lipolysis stimulation, factor with respect to the control (1 μM, p<0.01): 10
- % of the control (1.0 μM): 1048%

Compound: Cn1c(=O)c2c(ncn2C)n(C)c1=O [Caffeine, caffeine]
- NEFA (0.5 mM): 339 µM
- release of NEFA, factor with respect to the control (0.5 mM, p<0.01): about 9.5
- % of the control (0.5 mM): 941%
